Experiments:
[1] = Boiling point (Table 1); format: physicochemical
[2] = pKa of the alkanolamines (Table 1); format: physicochemical

**Q.** For `NCCOCCO` [DGA, 2-aminoethoxyethanol], which Boiling point [1] is on record?
**A.** 221 ° F.

**Q.** What about the pKa [2] of the same compound?
**A.** 9.4

**Q.** For `OCCNCCO` [DEA, diethanolamine], which Boiling point [1] is on record?
**A.** 268 ° F.

**Q.** Which Boiling point [1] does the source give for `CN(C)C(CO)(CO)CO` [DMTA, 2-dimethylamino-2-hydroxymethyl-1,3-propanediol] here?
**A.** 335 ° F.

Reference: patent US10286356B2, “Process for the removal of acid gases from gaseous mixtures using an aqueous solution of 2-dimethylamino-2-hydroxymethyl-1, 3-propanediol” (Dow Global Technologies LLC, priority 2014, dated 2019)
